Experimental data reported in PubChem BioAssay AID179 (DTP/NCI, 2004).
“And” between values parts separate entries of the source, which are not always exact repeats. Equal values may be shown once. The source made the active and inactive calls.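 Rule for the calls: active = compounds giving half or more protection of infected cells from virus-caused growth loss, again on retest; inactive = the rest.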

System: CEM cells HIV-1 protection, formazan growth assay
Assay: NCI AIDS Antiviral Assay
Settings: for IC50: measured here: growth of uninfected CEM cells
Method in brief: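 Screen of anti-HIV-1 activity in human CEM cells using a formazan-based growth measurement at five drug concentrations. Hits with 50% or greater protection were repeated, and confirmation required reproducible complete protection.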

| Structure (SMILES) | EC50 [µM] | IC50 | outcome |
| --- | --- | --- | --- |
| CN(C)c1cc2c3c(c1)CCCN3CCC2 | > 200 | 11.5 µM |  |
| N#CCC(=O)N/N=C1/C(=O)N(c2ccc(Cl)cc2)C(=O)C(=O)C1c1nc2ccccc2s1 (stereo unspecified) |  |  | inactive |
| O=C1C(C2CCCCC2)=C2OCC3COC2(O3)c2ccccc21 (stereo unspecified) | > 74.1 | 30.2 µM |  |
| O=C1NC(=S)N/C1=C\c1cc2c(=O)c3ccccc3sc2s1 | 75.9 | 81.3 µM |  |
| COc1ccc(CC(=O)c2ccc(O)cc2O)cc1 | > 200 | 81.3 µM |  |
| O=C(CC(=O)N(C(=O)/C=C\c1ccccc1)c1ccc(Cl)cc1)N1N=C(c2ccccc2)C(N=Nc2cccc([N+](=O)[O-])c2)C1=O (stereo unspecified) | > 200 | 3.55 µM |  |
| CCOC(=O)c1ccc(-n2c(SCC)nc3sc(C)c(C)c3c2=O)cc1 | > 200 | > 200 µM |  |
| CCc1cccc(CC)c1NC(=O)C(C#N)C1=C(Cl)C(=O)c2ccccc2C1=O (stereo unspecified) | > 17.8 | 11.5 µM |  |
| Clc1cccc(N2CCN(CCN3CCc4c([nH]c5ccccc45)C3c3cccnc3)CC2)c1 (stereo unspecified) | > 2.19 | > 2.19 µM |  |
| CC(C)CCCC(C)C1CCC2[C@@H]3CCC4C[C@@H](CCCO)CC[C@]4(C)C3CC[C@]12C (stereo partly specified) | > 4.37 | > 4.37 µM |  |
| CC(=O)Nc1c(C#N)c2n(c1C(=O)Nc1ccc(C)cc1)CCC2 | > 100 | > 100 µM |  |
| O=C1C(=O)c2ccccc2C(O)=C1C(C1=C(O)c2ccccc2C(=O)C1=O)c1ccc(Cl)cc1 | > 200 | 37.2 µM |  |
| Cc1cn(C2CC(N=[N+]=[N-])C(COC(=O)CCCCCCCCCCCF)O2)c(=O)[nH]c1=O (stereo unspecified) | 0.162 | 2 µM |  |
| COc1ccc(N/C=C2\C(=O)CCc3c2oc2cc(Cl)c(O)c(Cl)c32)cc1 | > 200 | 28.8 µM |  |
| O=C(CSc1nnc(Cc2ccccc2)o1)Nc1ccccc1Cl | > 138 | > 138 µM |  |
| CC12O[C@H](c3ccccc3)[C@H](c3ccccc3)N1C(=O)C1(C(=O)OCc3ccccc3)CC12 (stereo partly specified) | > 22.9 | > 22.9 µM |  |
| NCCCCCCNS(=O)(=O)c1cccc2c(Cl)cccc12 | > 200 | 13.5 µM |  |
| O=S(=O)(O)CCCO | > 200 | > 200 µM |  |
| COc1cc(C(O)c2ccc3c(c2)OCO3)cc(OC)c1OC (stereo unspecified) | > 200 | 87.1 µM |  |
| N#C/C=C\c1ccc(-c2cc(C(F)(F)F)cc(C(F)(F)F)c2)o1 | > 200 | 46.8 µM |  |
| COc1cccc(C2CC23C(=O)NC(=O)NC3=O)c1 (stereo unspecified) | > 100 | > 100 µM |  |

| Structure (SMILES) | EC50 [µM] | IC50 | outcome |
| --- | --- | --- | --- |
| COc1cc2cc3c4c(cc(OC)c(OC)c4c2cc1OC)CCN3C(=O)CCCC(=O)O | > 200 | 110 µM |  |
| CCN(CCCl)CCCCNc1c2ccccc2nc2ccc(OC)cc12 |  |  | inactive |
| COc1cc(C2c3cc4c(cc3C(O)[C@H]3COC(=O)C23)OCO4)cc(OC)c1O (stereo partly specified) | > 200 | 0.0631 µM |  |
| CC(C)(C)OC(=O)NCCc1cccc2c1oc1c(CCC(=O)O)cccc12 | > 309 | 110 µM |  |
| CC1(C)Oc2ccc3c4c(c(=O)oc3c2[C@@H](OC(=O)C23CCC(C)(C(=O)O2)C3(C)C)[C@H]1OC(=O)C12CCC(C)(C(=O)O1)C2(C)C)CCCC4 (stereo partly specified) | 0.813 | 12 µM |  |
| CC(C)CCC[C@@H](C)[C@H]1CCC2[C@@H]3CC[C@H]4C[C@@H](CCC=C(c5cc(Cl)c(OCc6ccc(-c7ccc(C(=O)O)cc7)cc6)c(C(=O)O)c5)c5cc(Cl)c(OCc6ccc(-c7ccc(C(=O)O)cc7)cc6)c(C(=O)O)c5)CC[C@]4(C)[C@H]3CC[C@@]21C (stereo partly specified) | > 200 | 170 µM |  |
| Nc1cccc(C(=O)/C=C/c2ccccc2O)c1 | > 282 | 55 µM |  |
| Oc1ccc2ccccc2c1CN1CCOCC1 | 132 | 186 µM |  |
| O=C1N2Cc3c4ccc5c3CN3C(=O)N6Cc7c(ccc(c7CN1C6(c1ccccc1)C23c1ccccc1)OCCOCCOc1cc(Br)c(Br)cc1OCCOCCO4)OCCOCCOc1cc(Br)c(Br)cc1OCCOCCO5 (stereo unspecified) | > 0.55 | > 0.55 µM |  |
| Nc1nc(Cl)cc(NC2(CO)CCC2)n1 | > 200 | > 200 µM |  |
| O=C1/C(=C\c2ccc(Cl)cc2Cl)Sc2scc(-c3ccc(O)c(O)c3)[n+]21 | > 200 | 6.31 µM |  |
| Cc1ccc(/C=C/CO)cc1 |  |  | inactive |
| CCn1c(=O)c2c3ccc(O)cc3[nH]c2c2ccc(O)cc21 | > 200 | 38.9 µM |  |
| N.N.N.N.N.O=C([O-])CCl.[Co+3].[O-][Cl+3]([O-])([O-])[O-] |  |  | inactive |
| Cc1cc2c(C(C)C)c(O)c(O)c(C=NC(C)c3ccccc3)c2c(O)c1-c1c(C)cc2c(C(C)C)c(O)c(O)c(C=NC(C)c3ccccc3)c2c1O (stereo unspecified) | > 7.24 | > 7.24 µM | inactive |
| COc1cc([N+](=O)[O-])c(S(=O)(=O)O)cc1N | > 1000 | > 1000 µM |  |
| CC1=CC(=O)CCC2(C)C1CC[C@@H]2OC=O (stereo partly specified) |  |  | inactive |
| COc1cc(CNc2nc3ccccc3nc2C(=O)O)cc(OC)c1OC | > 200 | 74.1 µM |  |
| Nc1ncnc2c1ccn2CC#CCO | > 200 | > 200 µM |  |
| CCOC(=O)/C=C/CCO[Si](C)(C)C(C)(C)C | > 200 | > 200 µM |  |
| O=NC1C2CCC(C2)C1N=O.[Co].[c-]1[c-][c-][cH-][c-]1 (stereo unspecified) | > 200 | 49 µM |  |

| Structure (SMILES) | EC50 [µM] | IC50 | outcome |
| --- | --- | --- | --- |
| C/C(=C\C(=O)OCCCCCCCC(N)=O)C(O)[C@@H]1OCC(C/C=C/[C@@H](C)[C@H](C)O)[C@@H](O)[C@H]1O (stereo partly specified) | > 200 | > 200 µM |  |
| COc1c(C(=O)O)cccc1-c1cccc(C(=O)NCCN(CCNC(=O)c2cccc(-c3cccc(C(=O)O)c3OC)c2OC)CCNC(=O)c2cccc(-c3cccc(C(=O)O)c3OC)c2OC)c1OC | > 200 | > 200 µM |  |
| COc1ccc2c(NCCCCCCNc3c4ccccc4nc4cc(OC)ccc34)c3ccccc3nc2c1 |  |  | inactive |
| C=CCOC(=O)C1CC2OC2CC1C(=O)OCC=C (stereo unspecified) | > 200 | > 200 µM |  |
| Nc1ccc2cc3ccc(N)cc3nc2c1 | > 200 | 1.12 µM and 0.692 µM |  |
| Nc1nccc(Nc2ccc(S(N)(=O)=O)cc2)n1 | > 200 | 135 µM |  |
| CC1(C)COP(Oc2ccccc2)OC1 | > 200 | > 200 µM |  |
| Cc1c2ccccc2nc(CCl)[n+]1[O-] | > 200 | 3.24 µM |  |
| Sc1ccccc1N=Cc1cccs1 | > 200 | 93.3 µM |  |
| O=C1C2=C(C(=O)c3ccccc31)C(O)(S(=O)(=O)O)C(O)(S(=O)(=O)O)C1N=CC=CC21 (stereo unspecified) | > 200 | 3.39 µM |  |
| CCCCCCCCCCCCCCCCCCOP(=O)(O)OCCC=C(c1cc(Cl)c(O)c(C(=O)O)c1)c1cc(Cl)c(O)c(C(=O)O)c1 | > 170 | 63.1 µM |  |
| CCN(CC)c1cc2oc(=O)cc(C)c2cc1NC(=O)c1cc([N+](=O)[O-])cc([N+](=O)[O-])c1 | > 49 | > 49 µM |  |
| CCOC(=O)C(=CNc1ccc(N(C2=NCC(C)S2)c2ccc(F)c(Cl)c2)cc1)C(=O)OCC (stereo unspecified) |  |  | inactive |
| CC1OC(OCC2OC(Oc3c(-c4ccc(O)cc4)oc4cc(O)cc(O)c4c3=O)C(OC3OC(C)C(O)C(O)C3O)C(O)C2O)C(O)C(O)C1O (stereo unspecified) | > 339 | > 339 µM |  |
| COc1ccc(NC(=S)c2ccoc2C)cc1CC(=O)OC(C)C | 0.174 | 1.51 µM |  |
| CC1=CC(=O)c2ccc3c4ccccc4n(C)c3c2C1=O | > 26.3 | > 26.3 µM |  |
| CCc1cccc(C(C)CC)c1NC(=O)C(=O)C(CC(=O)Nc1ccc(Cl)c(Cl)c1)C(=O)OC (stereo unspecified) | > 186 | > 186 µM |  |
| O=C1c2cc(Br)ccc2OC2CCON12 (stereo unspecified) |  |  | inactive |
| O=C1/C(=C/c2cc(O)c(O)c(O)c2)Oc2cc(O)cc(OC3OC(CO)C(O)C(O)C3O)c21 (stereo unspecified) |  |  | inactive |
| COc1cc2c(cc1O)[C@@H]1Cc3c(cc(OC)c(OC)c3Oc3cc4c(cc3OC)CCN(C)[C@@H]4Cc3ccc(O)cc3)[C@H](C2)N1C | > 200 | 15.5 µM |  |
| O=C(Cn1c(=O)oc2ccc(C(=O)c3cccc(Cl)c3)cc21)c1ccccc1 | > 200 | 56.2 µM |  |

| Structure (SMILES) | EC50 [µM] | IC50 | outcome |
| --- | --- | --- | --- |
| Fc1ccc2nncc(SCc3ccccc3Cl)c2c1 | > 87.1 | 35.5 µM |  |
| Cc1c(C)c(C)c(-n2[nH]c(=O)n(C)c2=O)c(C)c1C | > 200 | > 200 µM |  |
| O=C1CSC(c2c[nH]c3ccccc23)N1c1cccc([N+](=O)[O-])c1 (stereo unspecified) | > 200 | 21.9 µM |  |
| O=C1O/C(=C(/Cl)c2c3ccccc3cc3ccccc23)c2ccccc21 | > 200 | 10.2 µM |  |
| CN(C)c1ccc(C2=C([O-])c3cc(-[n+]4ccccc4)ccc3C2=O)cc1 | > 200 | 178 µM |  |
| CCN(CC)CCOc1ccc(/C(C#N)=C/c2ccc3ccccc3c2)cc1 | > 100 | 0.933 µM |  |
| CC1=C(C#N)c2nc3ccccc3n2C(=O)C1(C)CCO (stereo unspecified) | > 200 | > 200 µM |  |
| CC(C)CCC[C@@H](C)[C@H]1CC[C@H]2[C@@H]3CC=C4CC(OC(=O)OC5CCC6(C)CC7C=CC6(OO7)C5(C)C)CC[C@]4(C)[C@H]3CC[C@]12C (stereo partly specified) | > 100 | > 100 µM |  |
| COC(=O)C1CCC(=O)N1C(c1cc(OC)c(OC)c(OC)c1)c1cccc2ccccc12 (stereo unspecified) | > 200 | 83.2 µM |  |
| O=C1CCC2=C1C[C@@H]1CCCO[C@@H]1O2 |  |  | inactive |
| C=C1C(OC(=O)CC(c2ccccc2)N(C)C)C[C@H](OC(C)=O)[C@]2(C)C1C[C@@H]1CC(OC(C)=O)C(C)=C([C@@H](OC(C)=O)C2OC(C)=O)C1(C)C (stereo partly specified) |  |  | inactive |
| CCCCCCCCCCCCCCC1OC(=O)c2ccccc21 (stereo unspecified) |  |  | inactive |
| [N-]=[N+]=NC1CC(n2cc(C(OCC(F)(F)F)OCC(F)(F)F)c(=O)[nH]c2=O)OC1CO (stereo unspecified) | 25.1 | 107 µM |  |
| CC(C)=CCc1c(-c2ccc(O)cc2OC2OC(CO)C(O)C(O)C2O)oc2c3c(cc(O)c2c1=O)OC(C)(C)C=C3 (stereo unspecified) | > 58.9 | > 58.9 µM |  |
| Cc1c(C(=O)CC(=O)C(=O)Nc2cccc(C(F)(F)F)c2)[n+](=O)c2ccccc2n1[O-] | > 40.7 | 3.55 µM |  |
| Nc1nc2cc[nH]c2c(=O)[nH]1 | > 661 | > 661 µM |  |
| N=C(N)n1ncc(Cl)c(Cl)c1=O | > 91.2 | 0.407 µM |  |
| CC1CC(C)(C)N=C(C(C)CC(C)(C)C)O1 (stereo unspecified) | > 200 | 60.3 µM |  |
